These results are taken from patent US4203986A, “M-Trifluoro-methylphenyl-piperazine” (Metabio-Joullie, priority 1977, dated 1980).

The subject of data set [1] is coughing induced by aqueous citric acid aerosol. Nature of the data set: Antitussive action in the guinea pig (citric acid aerosol). It counts as in vivo. From the text: The technique used is that of SIECKMANN (W.) (in "Notions techniques de Pharmacologie generale" by Michel COLOT, page 75, Masson, Edit, 1972).
The guinea pigs .female. of mean weight 400 g, unanaesthesised, are subjected to the tussigenic effect of aerosols of a 7.5% aqueous citric acid solution. The animals are placed one by one in a cylindrical chamber having at its two extremities two canals, one serving as entrance for the aerosol and the other as its exit.
On the exit tube there is a lateral connection to a MERCURY gas pressure differential gauge joined to an RACIA counter. An adjustable screw clamp placed on the exit tube downstream of the lateral canal permits regulation of the sensitivity of the system such that the normal respiration of the animal only registers very weakly and that displacement of air in the chamber provoked by coughing attack is recorded clearly in the form of vertical traces.
Each guinea pig is first submitted to a control test for 5 minutes. One hour later it receives the test compound. It is replaced in the chamber for 5 minutes, 1 hour after oral administration of the compound.
The number of coughing attacks before and after administration is counted and the percentage inhibition is calculated.

A short description of data set [2]: Acute toxicity in Mice. It counts as in vivo, mice (SWISS, EOPS, NMRI/Han, female). The settings on record: for LD50 at 360 h / MTD at 360 h: mouse, in vivo; for LD50 at 360 h: method of KARBER and BEHRENS; for MTD at 360 h: read-out: LD 0 (maximum dose tolerated). The method, then:
The compounds are administered in increasing doses (in arithmetic progression) to groups of five .female. SWISS, EOPS, NMRI/Han mice of the EVIC CEBA strain and having a mean weight of 22 g.
For intravenous administration the compounds are dissolved in distilled water, for oral administration they are suspended in 10% gum arabic solution (volume administered: 0.5 ml/22 g body weight).
The LD 50's are calculated according to the method of KARBER and BEHRENS (B.) (Arch. Exp. Path. Pharmakol. 1935, 177, 379-388).
For each administration method, there is indicated:
LD 0 or maximum dose tolerated.
LD 100 or minimum lethal dose.
The number of animals surviving in the different groups is definitively verified 15 days after administrating the compounds.

The test system of data set [3] is coughing by stimulation of the superior larynx nerve. Nature of the data set: Antitussive action in the cat (stimulation of the superior larynx nerve). It counts as in vivo. The settings on record: 12 mg/kg i.v. Here is the method: The cats all thriving, male or female of weight between 1.5 and 2.5 kg (test on 10 cats) are anaesthesised by nembutal at a dose of 30 mg/kg interperitoneally.
A cannula having three branches is placed in the trachea. Two of the branches are connected to a device for registering intratracheal pressure (MERCURY gas pressure gauge connected to an RACIA polygraph) The third branch allows elimination of part of the respiratory volume.
A cannula is placed in the femoral vein for administration of the test substances.
The stimulation parameters are as follows: frequency: 5 cycles per sec, amplitude: 5 millisec, voltage: 4 to 6 volts, duration: 15 to 45 sec. (according to the sensitivity of the animal).
There are carried a minimum of 3 stimulations spaced by 5 minutes and provoking coughing attacks of the same severity. The compound is then administered intravenously. The stimulation is then carried out every 5 minutes. If the compound reduces or suppresses the coughing the stimulation is continued until the reappearance of coughing to approximately the same degree as the initial coughing.
The results are expressed as a percentage reduction in the number of coughs.

The nature of data set [4]: Test on the cataleptic action in rats. Format: in vivo. The settings on record: p.o., every 30 minutes for 6 hours. The method, then:
(7) Test on the cataleptic action in rats (groups of 5 animals)
After administration p.o. of the test compounds, the degree of catalepsy is noted every 30 minutes for 6 hours by the test of crossing of the homolateral feet according to BOISSIER (J.R.) and SIMON (P.) (Therapy, 1963, 18, 1257-1277) and using the following notation:
0=animal which is not cataleptic
132 animal conserving position on one side only
2=animal conserving position on both sides

Data set [5] relates to toxicity of amphetamine compounds. Kind of data set: Action on the toxicity of Amphetamine compounds in the mice. Format: in vivo. Conditions: per os. The method, then:
(6) Action on the toxicity of Amphetamine compounds in the mice. (groups of 10 animals)
30 minutes after administration of the test compounds, amphetamine bitartrate is injected interperitioeally at a dose of 10 mg/kg (dose giving substantially 100% mortality) to mice in groups of 10 in boxes 12×18×13 cm. The number of animals surviving 24 hours after the amphetamine administration is noted.

Read-outs that look alike come from different tables or passages of the source.

For orientation: LD50 means the dose expected to kill half of the subjects tested. A higher LD50 goes with lower toxicity. `O=C1CCCCC1CN1CCN(c2cccc(C(F)(F)F)c2)CC1` (centres unmarked) [LJ 1144]: the inhibition in vivo at 182 mg/kg in data set [1] (Cavia porcellus, po, 1 h, 182 mg/kg p.o., read-out: Percentages of inhibition of coughing) worked out at 75%. In addition, the “antitussive activity (in words)” value in data set [1] (oral) is “also active if not more active than codeine”. Besides, the “LD 100 (minimum lethal dose)” value in data set [2] (intravenous administration) came to 75 mg/kg; in data set [2] (oral administration) it was 2250 mg/kg. In addition, the LD50 at 360 h in data set [2] (iv, intravenous administration) is 61 mg/kg; in data set [2] (po, oral administration), 1820 mg/kg. Further, the MTD at 360 h is 37.5 mg/kg in data set [2] (iv, intravenous administration) and 1250 mg/kg in data set [2] (po, oral administration). In addition, in data set [3], the “% maximum reduction in the number of coughs” value is recorded as 85%. Moreover, the cataleptic effect entry in data set [4] is “absence of cataleptic effect”. For the same compound, the “toxicity of amphetamine compounds (in words)” value in data set [5] is given as “reduce the toxicity of amphetamine compounds”.
For the compound `O=C1CCCC1CN1CCN(c2cccc(C(F)(F)F)c2)CC1` (centres unmarked) [LJ 1160], the inhibition in vivo at 100 mg/kg in data set [1] (Cavia porcellus, po, 1 h, 100 mg/kg p.o., read-out: Percentages of inhibition of coughing) stood at 50%. The results for the “LD 100 (minimum lethal dose)” value in data set [2] (intravenous administration) and in data set [2] (oral administration) were 87.5 mg/kg and 1500 mg/kg, respectively. For the same compound, the LD50 at 360 h came to 74 mg/kg in data set [2] (iv, intravenous administration) and 975 mg/kg in data set [2] (po, oral administration). Moreover, the MTD at 360 h in data set [2] (iv, intravenous administration) was found to be 62.5 mg/kg; in data set [2] (po, oral administration), 500 mg/kg. In addition, in data set [4], the cataleptic effect entry is recorded as “absence of cataleptic effect”. In addition, the “toxicity of amphetamine compounds (in words)” value in data set [5] was “reduce the toxicity of amphetamine compounds”.
